Assay results reported in paper PMC12042267, “Expanding the Family of Monosubstituted 15-Membered Pyridine-Based Macrocyclic Ligands for Mn(II) Complexation in the Context of MRI” (Inorganic Chemistry, 2025).

Experiments:
[1] = fixed during the fitting procedure ref 28; cited from earlier work
[2] = Water solubility of complex samples; format: physicochemical; details: at the concentrations required for the measurements
Excerpt: MnL2 and MnL3 complex samples for kinetic and relaxometric studies have been prepared by mixing MnCl2 and L2 or L3 solutions of known concentrations in a 1:1.05 ratio and by adjusting the pH to 7.4. Mn(II) concentration in each sample was verified by bulk magnetic susceptibility measurements.

[3] = 1H relaxivity (relaxometry, NMRD profiles); format: physicochemical; details: for r1 (relaxivity): 20 MHz, 0.47 T
Experimental: At 60 MHz, ^1H longitudinal (T1) and transverse (T2) relaxation times were measured with a Bruker Minispec MQ-60 NMR analyzer. The temperature was set to 25.0 °C and controlled with a circulating water bath. T1 and T2 values were determined, respectively, by using the inversion recovery method (180−τ–90°) and the Carl–Purcell–Meiboom–Gill (CPMG) spin–echo pulse sequence. […]
^1H NMRD profiles on aqueous solutions of MnL2 (cMn2+ = 0.98 mM; pH = 7.22) and MnL3 (cMn2+ = 0.96 mM; pH = 7.20) were recorded at 25 and 37 °C on a SMARTracer Fast Field Cycling NMR relaxometer (Stelar; 0.00024–0.24 T, 0.01–10 MHz ^1H Larmor frequency) and a WP80 NMR electromagnet adapted to variable-field measurements (Bruker; 0.47–1.88 T, 20–80 MHz ^1H Larmor frequency). The temperature was maintained by a gas flow and monitored by a VTC91 temperature control unit based on previous calibration with a Pt resistance temperature probe.

[4] = Stability constants of Mn(II) complexes by pH-potentiometry, pMn and species distribution; format: physicochemical; details: species distribution, [Mn(II)] = [L] = 1.5 mM
Experimental: Metal stock solutions were prepared from the highest analytical grade chemicals, and their concentration was determined by complexometric titration with standardized Na2H2EDTA, using xylenol orange indicator in the presence of urotropine buffer (ZnCl2 and MnCl2); Eriochrome black T indicator in the presence of ammonium acetate buffer (CaCl2) or murexide indicator in ammonium solution (CuCl2). The concentration of the ligand stock solutions was determined by pH-potentiometric titrations (the difference between two consecutive inflection points of the ligand titration curve corresponds to two (L2) or one (L3) ligand equivalents). To determine the protonation constants of the ligand and stability constants of the metal complexes with selected divalent metal ions, pH-potentiometric titrations were carried out with 0.1 M NaOH at 2 mM ligand concentration, in the absence (for ligand protonation constants) or in the presence of one equivalent of metal ion (for stability constants). During the titration, the waiting time was 2 min between successive points (V0 = 5 mL). The temperature (25.0 ± 0.1 °C) was controlled by a circulating water bath. The ionic strength was set to I = 0.15 M NaCl. All titrations were performed under a nitrogen atmosphere to avoid the effect of CO2. Titrations were carried out in the pH range from 1.8 (L3) or 2.0 (L2) (after the addition of 1 M HCl solution to the starting ligand solution in the titration cell) to pH 11 (or until precipitation of the metal hydroxide). All pH-potentiometric titrations were performed using a 785 DMP Titrino titration workstation with a combined electrode (Metrohm). The p[H] (p[H] = −log[H+], concentration in molarity) was measured in each titration with a combined pH glass electrode (Metrohm) filled with 3 M KCl. The electrode was calibrated in hydrogen ion concentration by titration of HCl with KOH in 0.1 M electrolyte solution.[37] A plot of potential versus p[H] allows determination of the electrode standard potential (E°) and the slope factor (f).
The protonation constants of the ligand (log Ki^H) are defined as follows [drawing 1] where i = 1, 2, ··· and [Hi–1L] and [H^+] are the equilibrium concentrations of the ligand (i = 1), its protonated forms (i = 2, ···), and the hydrogen ion. The stability (KML) and the protonation (KMHiL) constants for the metal complexes are defined as follows [drawing 2] [drawing 3] For the calculations of the equilibrium constants, the HYPERQUAD program was used.[38] The number of fitted data pairs was between 190 and 240. The ionic product of water at 25 °C and 0.1 M ionic strength is pKw = 13.77.[39] Fixed values were used for pKw, ligand acidity constants, and total concentrations of metal, ligand, and acid. All values and errors (one standard deviation) reported are at least the average of two independent experiments.
To obtain further information about the impact of a given pendant arm, it is interesting to calculate pMn values (pMn = −log[Mn(II)]free at pH 7.4, cMn = clig= 10^–5 M) which provide a more direct comparison of MnL stabilities, independently of differences in protonation constants (Table 4). […] Nevertheless, the too large, 15-membered macrocyclic cavity combined with a lower number of pendant arms provide ca. 2 orders of magnitude lower stability for Mn(II) complexation as compared to the 12-membered pyclen derivatives (Table 4).

Row | SMILES | AO/ℏ (scalar coupling constant) [1] | water solubility [2] | relaxivity (constant between pH 7 and 11) ([3]; 1.41 T and 25 °C, pH 7 to 11) [mM^–1 s^–1] | r1 (relaxivity) ([3]; 25 °C) [mM^–1 s^–1] | r1 (relaxivity) ([3]; 25 °C, listed as [Mn(L2)(H2O)]^+) [mM^–1 s^–1] | r1 (relaxivity) ([3]; 37 °C) [mM^–1 s^–1] | pH above which full complex formation is achieved [4] | r1 (relaxivity) ([3]; 25 °C, listed as [Mn(L3)(H2O)]^+) [mM^–1 s^–1]
1 | O.[Mn+2].c1ccc(CN2CCOCCOCCNCc3cccc(n3)C2)nc1 [MnL2] | 38.6 ^e 10^6 rad s^–1 | water-soluble | 2.62 | ~2.5 | 2.49 | 1.98 | > 6 | 
2 | O.[Mn+2].c1cc2nc(c1)CN(Cc1nc3ccccc3[nH]1)CCOCCOCCNC2 [MnL3] | 38.6 ^e 10^6 rad s^–1 | water-soluble |  | ~2.5 |  | 2.24 | > 6 | 2.77
